Among the data in patent publication US20240300941A1, “HPK1 INHIBITORS, PREPARATION METHOD AND APPLICATION THEREOF” (ZHUHAI YUFAN BIOTECHNOLOGIES CO., LTD., priority 2018, published 2024) are IC50 values, retold here.

Some results are limits rather than exact numbers.

One assay has as its target HPK1 (Homo sapiens (Human), UniProt Q92918). Description: HPK1 ADP-Glo enzyme assay. In kind it is biochemical. The settings on record: HPK1 protein 5 nM, MBP and ATP substrate, ADP-Glo readout. How it is done:
The buffer used in the enzyme assay contains 5 mM MOPS (pH=7.2), 2.5 mM β-Glycerol Phosphate, 0.4 mM EDTA, 1 mM EGTA, 0.05 mM DTT, 5 mM MgCl2. The compound was dissolved in 100% DMSO at the concentration was 10 mM. The initial concentration of the test was 5 uM, and ten data points were diluted by three-fold gradient, and each point was repeatedly measured twice. The HPK1 protein was purchased from Thermo (Cat. No. PV6355) and diluted to 2× stock solution at the concentration of 10 nM (the final concentration of the enzyme assay was 5 nM). 2.5 µl of 2×HPK1 protein was added to each well of the plate containing the test compound, centrifuged at 1000 rpm for 30 seconds, and then incubated at 25° C. for 15 minutes. MBP protein was purchased from Millipore (Cat. No. 13-110) and ATP was purchased from Sigma (Cat. No. A7699-5G) and the two were formulated into 2× working solutions at concentrations of 4 uM and 80 uM. Added 2.5 μl mixture of 2×MBP and ATP, centrifuged at 1000 rpm for 30 seconds, then incubated at 25° C. for 90 minutes. Then added 5 ul of ADP-Glo™ (Promega, Cat. No. V9102) to the assay plate and incubated […] at 25° C. for 60 minutes. Finally, 10 ul of the kinase assay reagent (Promega, Cat. No. V9102) was added to the assay plate, centrifuged at 1000 rpm for 30 seconds at 25° C. for 60 minutes, and the […] intensity was determined.
A general note: In ADP-Glo the light output rises with the ADP produced.

Assay [1] concerns pSLP-76(Ser376) in Jurkat E6-1 cells. Description: Jurkat E6-1 pSLP-76(Ser376) HTRF experiment. It is filed as cell-based. The settings on record: 4 hours compound incubation, anti-human CD3 antibody 20 minutes, Phospho-SLP-76 / SLP-76 HTRF. How it is done: Jurkat E6-1 cells were purchased from ATCC (Cat. No. TIB-152TM) and cultured overnight with RPMI 1640 containing 0.5% o FBS, after that 20 μL (10^7 cells/mL) cells were added to the experimental plates. Then the test compounds were diluted by three-fold gradient, and 10 different concentrations were prepared, and 5 μl of each was added to the experimental plate, and incubated for 4 hours in 37° C. incubator containing 5% CO2. Then 5 ul of 6× anti-human CD3 antibody (Biolegend, Cat. No. 300432) was added and incubated for 20 minutes in 37° C. incubator containing 5% CO2. Finally, the Phospho-SLP-76 and SLP-76 results were determined using the Cisbio Phospho-SLP-76 and SLP-76 HTRF assay kits (items: 63ADK076PEH and 63ADK077PEH, respectively). Based on the results, the IC50 of the compound is calculated.

Sequence of HPK1 (Q92918 whole entry): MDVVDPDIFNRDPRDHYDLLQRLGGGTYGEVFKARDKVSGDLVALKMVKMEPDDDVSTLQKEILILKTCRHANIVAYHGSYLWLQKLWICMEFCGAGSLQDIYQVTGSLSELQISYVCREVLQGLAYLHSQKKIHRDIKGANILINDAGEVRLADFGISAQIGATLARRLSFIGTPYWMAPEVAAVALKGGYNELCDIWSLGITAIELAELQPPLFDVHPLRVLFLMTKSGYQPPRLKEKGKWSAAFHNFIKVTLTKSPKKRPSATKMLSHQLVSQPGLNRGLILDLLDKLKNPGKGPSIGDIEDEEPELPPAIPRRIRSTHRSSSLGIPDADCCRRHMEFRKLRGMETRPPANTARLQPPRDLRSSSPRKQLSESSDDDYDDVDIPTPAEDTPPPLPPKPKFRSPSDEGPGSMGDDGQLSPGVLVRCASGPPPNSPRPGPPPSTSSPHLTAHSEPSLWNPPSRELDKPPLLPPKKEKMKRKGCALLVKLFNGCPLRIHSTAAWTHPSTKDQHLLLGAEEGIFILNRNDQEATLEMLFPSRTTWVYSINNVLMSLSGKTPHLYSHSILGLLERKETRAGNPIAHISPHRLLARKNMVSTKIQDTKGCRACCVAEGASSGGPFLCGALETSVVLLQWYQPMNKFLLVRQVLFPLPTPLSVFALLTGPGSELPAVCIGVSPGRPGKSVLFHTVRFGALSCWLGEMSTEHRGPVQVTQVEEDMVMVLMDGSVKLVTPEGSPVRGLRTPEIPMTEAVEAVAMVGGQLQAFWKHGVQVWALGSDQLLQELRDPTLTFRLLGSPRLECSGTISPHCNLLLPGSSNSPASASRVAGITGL

For orientation: IC50 means the point on the concentration scale where inhibition reaches its midpoint. A higher IC50 goes with a need for much substance. Consider `C=CC(C)(O)C#Cc1cccc(COc2cc(-c3cnc(C4CCN(C)CC4)s3)cnc2N)c1` (centres unmarked) [A64], for which the IC50 on HPK1 is less than 0.1 µM; in assay [1], less than 1 µM.
For the molecule `CC(C)(O)C#Cc1cc(CN)cc(COc2cc(-c3cnc(C4CCOCC4)s3)cnc2N)c1` [A81], at HPK1, the concentration for half-maximal inhibition (IC50) is less than 0.1 µM.
Turning to `Cc1cc(C#CC(C)(C)O)cc(COc2cc(-c3cnc(C4CCN(C)CC4)s3)cnc2N)c1` [A71], the IC50 at HPK1 was less than 0.1 µM; in assay [1] it was less than 1 µM.
With `C#Cc1cc(COc2cc(-c3cnc(C4CCN(C)CC4)s3)cnc2N)ccn1` [A39], the IC50 on HPK1 was less than 0.1 µM; in assay [1] it was less than 1 µM.
`CN1CCN(C2CCN(c3ncc(-c4cnc(N)c(OCc5cccc(C#CC(C)(C)O)c5)c4)s3)CC2)CC1` [A69] returned an IC50 on HPK1 of less than 0.1 µM.
Take `CN1CCC(c2ccnc(-c3cnc(N)c(OCc4cccc(C#CC(C)(C)O)c4)c3)c2)CC1` [A58]: the IC50 against HPK1 was 0.1 to 1 µM.
Consider `Nc1ncc(-c2cccc(N3CCOCC3=O)c2)cc1OCc1ccncc1` [A85], for which the IC50 at HPK1 is more than 1 µM.
With `CN1CCC(c2ncc(-c3cnc(N)c(OCc4cc(C#CC(C)(C)O)ccc4Cl)c3)s2)CC1` [A55], the half-inhibitory concentration (IC50) was less than 0.1 µM at HPK1 and less than 1 µM in assay [1].
For `CC(C)(O)C#Cc1cccc(COc2cc(-c3cnc(C4CCOCC4)s3)cnc2N)c1` [A23], in that order: less than 0.1 µM and less than 1 µM.
The molecule `CC(C)c1ncc(-c2cnc(N)c(OCc3cccc(C#CC(C)(C)O)c3)c2)s1` [A41] showed an IC50 in assay [1] of 1 to 50 µM.
For the molecule `CN1CCC(c2ncc(-c3cnc(N)c(OCc4cc(C#CC(C)(C)O)ccc4F)c3)s2)CC1` [A19], the IC50 was less than 0.1 µM on HPK1 and less than 1 µM in assay [1].
For `CN1CCC(n2cc(-c3cnc(N)c(OCc4cccc(C#CC(C)(C)O)c4)c3)cn2)CC1` [A32], in that order: less than 0.1 µM and less than 1 µM.
For the molecule `CC(C)(O)C#Cc1cccc(COc2cc(-c3cnc(N4CCCCC4)s3)cnc2N)c1` [A29], on HPK1, the IC50 lay within 0.1 to 1 µM.
`CC1CN(c2ncc(-c3cnc(N)c(OCc4cccc(C#CC(C)(C)O)c4)c3)s2)CCN1C` (centres unmarked) [A22]: the figures for the concentration for half-maximal inhibition (IC50) (on HPK1; in assay [1]) were less than 0.1 µM and less than 1 µM, respectively.
Taken in the same sequence, the figures for `CN1CCN(c2ncc(-c3cnc(N)c(OCc4cccc(C#CC(C)(C)O)c4)c3)s2)CC1` [A25] were less than 0.1 µM and less than 1 µM.
For `Nc1ncc(-c2cnn(C3CCOCC3)c2)cc1OCc1cccc(C#CC2(O)CC2)c1` [A47], in that order: less than 0.1 µM and less than 1 µM.
As to `CN1CCC(n2cc(-c3cnc(N)c(OCc4cc(C#CC(C)(C)O)ccc4F)c3)cn2)CC1` [A73], the IC50 against HPK1 is less than 0.1 µM.
In the case of `CN1CCC(c2ncc(-c3cnc(N)c(OCc4ccccc4)c3)s2)CC1` [A2], the values for the IC50 (on HPK1; in assay [1]) were 0.1 to 1 µM and 1 to 50 µM, respectively.
For `CN1CCC(c2ncc(-c3cnc(N)c(OCc4ccncc4)c3)s2)CC1` [A1], the figures for the IC50 (on HPK1; in assay [1]) were less than 0.1 µM and less than 1 µM, respectively.
As for `CN1CCC(c2ncc(-c3cnc(N)c(OCc4cc(C#CC(C)(C)O)ccc4C(F)(F)F)c3)s2)CC1` [A76], the half-inhibitory concentration (IC50) on HPK1 is less than 0.1 µM.
For the molecule `CC(C)c1ncc(-c2cnc(N)c(OCc3cncc(C#CC(C)(C)O)c3)c2)s1` [A45], the IC50 on HPK1 was 0.1 to 1 µM; in assay [1], 1 to 50 µM.
Consider `CC1CN(c2ncc(-c3cnc(N)c(OCc4cccc(C#CC(C)(C)O)c4)c3)s2)CC(C)N1C` (centres unmarked) [A26], for which the IC50 at HPK1 is less than 0.1 µM; in assay [1] it was less than 1 µM.
`CC(C)(O)C#Cc1cccc(COc2cc(-c3cnc(C4CCN(CC(F)(F)F)CC4)s3)cnc2N)c1` [A27]: the IC50 against HPK1 was less than 0.1 µM; in assay [1] it was 1 to 50 µM.
In turn, `CN1CCC(n2cc(-c3cnc(N)c(OCc4cccc(C#CC(C)(O)CF)c4)c3)cn2)CC1` (centres unmarked) [A74] showed an IC50 against HPK1 of less than 0.1 µM.
Turning to `CN1CCC(c2ncc(-c3cnc(N)c(OCc4cccc(C#CC5(O)CCCCC5=O)c4)c3)s2)CC1` (centres unmarked) [A61], the IC50 against HPK1 was in the range of 0.1 to 1 µM.
The same measure, in the same setting: then `CN1CCC(c2ncc(-c3cnc(N)c(OCc4cccc(C#CC(C)(C)O)c4)c3)s2)C1` (centres unmarked) [A72], with less than 0.1 µM.
For the molecule `CSc1ncc(-c2cnc(N)c(OCc3cccc(C#CC(C)(C)O)c3)c2)s1` [A17], the IC50 against HPK1 is less than 0.1 µM; in assay [1] it was 1 to 50 µM.
Taken in the same sequence, the figures for `Cc1ccc(C#CC(C)(C)O)cc1COc1cc(-c2cnc(C3CCN(C)CC3)s2)cnc1N` [A60] were less than 0.1 µM and less than 1 µM.
`Nc1ncc(-c2cnc(C3CCCCC3)s2)cc1OCc1ccncc1` [A37] came in with an IC50 in assay [1] of less than 1 µM.
Consider `CN1CCCN(c2ncc(-c3cnc(N)c(OCc4cccc(C#CC(C)(C)O)c4)c3)s2)CC1` [A24], for which the IC50 against HPK1 was less than 0.1 µM; in assay [1], less than 1 µM.
Taken in the same sequence, the figures for `CN1CCC(c2ccc(-c3cnc(N)c(OCc4ccncc4)c3)nc2)CC1` [A43] were 0.1 to 1 µM and 1 to 50 µM.
Taken in the same sequence, the figures for `CC(C)(O)C#Cc1cccc(COc2cc(-c3cnc(C4CCCNC4)s3)cnc2N)c1` (centres unmarked) [A56] were less than 0.1 µM and less than 1 µM.
For `CCC(C)c1ncc(-c2cnc(N)c(OCc3cccc(C#CC(C)(C)O)c3)c2)s1` (centres unmarked) [A20], in that order: less than 0.1 µM and 1 to 50 µM.
Regarding `CN1CCC(c2ncc(-c3cnc(N)c(OCc4cccc(C#CC(C)(O)C(F)(F)F)c4)c3)s2)CC1` (centres unmarked) [A33], the IC50 at HPK1 is more than 1 µM.
As for `CN1CCC(c2ncc(-c3cnc(N)c(OCc4ccnc(C#CC(C)(C)O)c4)c3)s2)CC1` [A10], the IC50 in assay [1] was less than 1 µM.
At HPK1, `Cc1nc(C2CCN(C)CC2)sc1-c1cnc(N)c(OCc2ccncc2)n1` [A15] registered an IC50 of 0.1 to 1 µM.
Regarding `CC(Oc1cc(-c2cnc(C3CCN(C)CC3)s2)cnc1N)c1ccncc1` (centres unmarked) [A4], the figures for the IC50 (against HPK1; in assay [1]) were 0.1 to 1 µM and 1 to 50 µM, respectively.
Taken in the same sequence, the figures for `CC(C)(O)C#Cc1ccc(F)c(COc2cc(-c3cnc(C4CCNCC4)s3)cnc2N)c1` [A31] were less than 0.1 µM and less than 1 µM.
Taken in the same sequence, the figures for `Nc1ncc(-c2cnc(C3CCNCC3)s2)cc1OCc1cc(C#CC2(O)CC2)ccc1F` [A53] were less than 0.1 µM and less than 1 µM.
For `Nc1ncc(-c2cnn(C3CCNCC3)c2)cc1OCc1cccc(C#CC2(O)CC2)c1` [A54], in that order: less than 0.1 µM and less than 1 µM.
For the molecule `CC(C)c1ncc(-c2cnc(N)c(OCc3cc(C#CC(C)(C)O)cc(CN)c3)c2)s1` [A70], the IC50 on HPK1 is less than 0.1 µM.
As for `CC(C)(O)C#Cc1cccc(COc2cc(-c3cnn(C4CCNCC4)c3)cnc2N)c1` [A79], the IC50 on HPK1 is less than 0.1 µM.
Still for that read-out and setting: with `CC(C)(O)C#Cc1cccc(COc2cc(-c3cnc(C4CCCCC4)s3)cnc2N)c1` [A30] the figure was 0.1 to 1 µM.
In assay [1], `Nc1ncc(-c2cnc(C3CCNCC3)s2)cc1OCc1ccncc1` [A7] displayed an IC50 of less than 1 µM.
Same read-out and setting: then `CN1CCC(c2ncc(-c3cnc(N)c(OCc4cccc(C#CC5(O)CCC5)c4)c3)s2)CC1` [A40], with less than 1 µM.
`CC(C)c1ncc(-c2cnc(N)c(OCc3cc(C#CC(C)(C)O)ccc3CN)c2)s1` [A67] registered a 50% inhibitory concentration (IC50) against HPK1 of less than 0.1 µM.
At HPK1, `CC(C)(O)C#Cc1cccc(COc2cc(-c3cnc(Oc4ccccc4)s3)cnc2N)c1` [A18] gave an IC50 of 0.1 to 1 µM.
`Nc1ncc(-c2cnc(C3CCOCC3)s2)cc1OCc1ccncc1` [A13] displayed an IC50 in assay [1] of less than 1 µM.
In turn, `CN1CCC(c2ncc(-c3cnc(N)c(OCc4ccc(F)c(C#CC(C)(C)O)c4)c3)s2)CC1` [A75] showed an IC50 against HPK1 of less than 0.1 µM.
Turning to `CN1CCC(c2ncc(-c3cnc(N)c(OCc4cc(C#CC(C)(C)O)cc(CN)c4)c3)s2)CC1` [A83], at HPK1, the IC50 is less than 0.1 µM.
For the molecule `CC(C)(O)C#Cc1cccc(COc2cc(-c3cnn(C4CCOCC4)c3)cnc2N)c1` [A80], on HPK1, the IC50 was less than 0.1 µM.
Molecule `CN1CCC(c2ncc(-c3cnc(N)c(OCc4ccnc(Cl)c4)c3)s2)CC1` [A8] came in with an IC50 in assay [1] of 1 to 50 µM.
For the molecule `CC(C)(O)C#Cc1cccc(COc2cc(-c3cnc(C4CCNCC4)s3)cnc2N)c1` [A42], the IC50 in assay [1] is less than 1 µM.
`CC(C)(O)C#Cc1ccc(CN)c(COc2cc(-c3cnc(C4CCOCC4)s3)cnc2N)c1` [A84] came in with an IC50 on HPK1 of less than 0.1 µM.
In assay [1], `CN1CCN(c2ncc(-c3cnc(N)c(OCc4ccncc4)c3)s2)CC1` [A12] showed an IC50 of less than 1 µM.
The same measure, in the same setting: with `CC(C)c1ncc(-c2cnc(N)c(OCc3ccncc3)c2)s1` [A36] the figure was 1 to 50 µM; with `CN1CCC(c2ncc(-c3cnc(N)c(OCc4cccc(C#CC(C)(C)O)c4)c3)s2)CC1` [A3], less than 1 µM; with `CN1CCC(c2ncc(-c3cnc(N)c(OCc4cccc(C#CC5(O)CCCC5)c4)c3)s2)CC1` [A34], less than 1 µM.
